Data taken from patent US20180200257A1, “METHODS FOR THE TREATMENT OF INFLAMMATORY DISORDERS” (Galapagos NV, priority 2015, published 2018).

Tested on: subjects with moderately to severely active RA who have an inadequate response to methotrexate (MTX)
Assay: Study 2 (monotherapy) - Creatinine levels
Format: in vivo, human
Text: Randomized, double-blind, placebo-controlled, multicenter, phase IIb dose finding study of Compound 1 (dosed as a [Compound 1:HCl:3H2O]) administered for 24 weeks as monotherapy to subjects with moderately to severely active rheumatoid arthritis who have an inadequate response to methotrexate alone
Double-blind, placebo-controlled, monotherapy study in subjects with moderately to severely active RA who have an inadequate response to methotrexate (MTX) (oral or parenteral).
280 subjects randomized to one of 3 doses of Compound 1 (dosed as a [Compound 1:HCl:3H2O]) or to placebo, given once daily (q.d.).
Twelve weeks of treatment with Compound 1 (dosed as a [Compound 1:HCl:3H2O]) at 50 mg, 100 mg, or 200 mg q.d.; or placebo. At Week 12, all subjects on placebo and the subjects on the 50 mg dose who have not achieved 20% improvement in swollen joint count (SJC66) and tender joint count (TJC68) will be assigned to 100 mg q.d. in a blinded fashion and will continue treatment until Week 24. Subjects in the other groups will maintain their randomized treatment until Week 24.
Creatinine levels determination is available at Quest Diagnostics, Clinical Trials, Quest House, 125-135 Staines Road, Hounslow, Middlesex, TW3 3JB, United Kingdom under Catalogue n# 82565. For Study 3, the data are obtained at BARC Europe, 3B,Industrie Park, Zwijnaarde, B-9052 Ghent, Belgium.
The Enzymatic method is based on the determination of sarcosine after conversion of creatinine with the aid of creatininase, creatinase, and sarcosine oxidase. The liberated hydrogen peroxide reacts with 4-aminophenazone and HTIB to form a quinone imine chromogen. The reaction is catalyzed by peroxidase. The color intensity is directly proportional to concentration of creatinine present and can be measured photometrically.
Subjects in the other groups maintained their randomized treatment until Week 24.

[1] = 50 mg q.d. non responders switching to 100 mg q.d. at week 12 (N = 15), week 0
[2] = 50 mg q.d. non responders switching to 100 mg q.d. at week 12 (N = 15), week 1
[3] = 50 mg q.d. non responders switching to 100 mg q.d. at week 12 (N = 15), week 2
[4] = 50 mg q.d. non responders switching to 100 mg q.d. at week 12 (N = 15), week 4
[5] = 50 mg q.d. non responders switching to 100 mg q.d. at week 12 (N = 15), week 8
[6] = 50 mg q.d. non responders switching to 100 mg q.d. at week 12 (N = 15), week 12
[7] = 50 mg q.d. non responders switching to 100 mg q.d. at week 12 (N = 15), week 16
[8] = 50 mg q.d. non responders switching to 100 mg q.d. at week 12 (N = 15), week 20
[9] = 50 mg q.d. non responders switching to 100 mg q.d. at week 12 (N = 15), week 24
[10] = 50 mg q.d. responders (N = 57), week 0
[11] = 50 mg q.d. responders (N = 57), week 1
[12] = 50 mg q.d. responders (N = 57), week 2
[13] = 50 mg q.d. responders (N = 57), week 4
[14] = 50 mg q.d. responders (N = 57), week 8
[15] = 50 mg q.d. responders (N = 57), week 12
[16] = 50 mg q.d. responders (N = 57), week 16
[17] = 50 mg q.d. responders (N = 57), week 20
[18] = 50 mg q.d. responders (N = 57), week 24
[19] = 100 mg q.d. (N = 70), 24 weeks results, week 0
[20] = 100 mg q.d. (N = 70), 24 weeks results, week 1
[21] = 100 mg q.d. (N = 70), 24 weeks results, week 2
[22] = 100 mg q.d. (N = 70), 24 weeks results, week 4
[23] = 100 mg q.d. (N = 70), 24 weeks results, week 8
[24] = 100 mg q.d. (N = 70), 24 weeks results, week 12
[25] = 100 mg q.d. (N = 70), 24 weeks results, week 16
[26] = 100 mg q.d. (N = 70), 24 weeks results, week 20
[27] = 100 mg q.d. (N = 70), 24 weeks results, week 24
[28] = 200 mg q.d. (N = 69), 24 weeks results, week 0
[29] = 200 mg q.d. (N = 69), 24 weeks results, week 1
[30] = 200 mg q.d. (N = 69), 24 weeks results, week 2
[31] = 200 mg q.d. (N = 69), 24 weeks results, week 4
[32] = 200 mg q.d. (N = 69), 24 weeks results, week 8
[33] = 200 mg q.d. (N = 69), 24 weeks results, week 12
[34] = 200 mg q.d. (N = 69), 24 weeks results, week 16
[35] = 200 mg q.d. (N = 69), 24 weeks results, week 20
[36] = 200 mg q.d. (N = 69), 24 weeks results, week 24
[37] = placebo switching to 100 mg q.d. at week 12 (N = 72), week 16
[38] = placebo switching to 100 mg q.d. at week 12 (N = 72), week 20
[39] = placebo switching to 100 mg q.d. at week 12 (N = 72), week 24

## O=C(Nc1nc2cccc(-c3ccc(CN4CCS(=O)(=O)CC4)cc3)n2n1)C1CC1 [Compound 1, cyclopropanecarboxylic acid {5-[4-(1,1-dioxo-thiomorpholin-4-ylmethyl)-phenyl]-[1,2,4]triazolo[1,5-a]pyridin-2-yl}-amide]
50 mg q.d. (N = 72), week 0
  Creatinine Mean CFB: 0.00 µmol/L
  Creatinine Mean percentage CFB: 0.00%
50 mg q.d. (N = 72), week 1
  Creatinine Mean CFB: 0.42 µmol/L
  Creatinine Mean percentage CFB: 1.10%
50 mg q.d. (N = 72), week 2
  Creatinine Mean CFB: 1.25 µmol/L
  Creatinine Mean percentage CFB: 2.59%
50 mg q.d. (N = 72), week 4
  Creatinine Mean CFB: 1.32 µmol/L
  Creatinine Mean percentage CFB: 3.01%
50 mg q.d. (N = 72), week 8
  Creatinine Mean CFB: 2.20 µmol/L
  Creatinine Mean percentage CFB: 4.34%
50 mg q.d. (N = 72), week 12
  Creatinine Mean CFB: 3.16 µmol/L
  Creatinine Mean percentage CFB: 6.02%
[1]
  Creatinine Mean CFB: 0.0 µmol/L
  Creatinine Mean percentage CFB: 0.00%
[2]
  Creatinine Mean CFB: 1.1 µmol/L
  Creatinine Mean percentage CFB: 2.03%
[3]
  Creatinine Mean CFB: 2.0 µmol/L
  Creatinine Mean percentage CFB: 3.77%
[4]
  Creatinine Mean CFB: 0.6 µmol/L
  Creatinine Mean percentage CFB: 1.58%
[5]
  Creatinine Mean CFB: 6.2 µmol/L
  Creatinine Mean percentage CFB: 10.36%
[6]
  Creatinine Mean CFB: 0.0 µmol/L
  Creatinine Mean percentage CFB: 0.74%
[7]
  Creatinine Mean CFB: 5.9 µmol/L
  Creatinine Mean percentage CFB: 11.14%
[8]
  Creatinine Mean CFB: 4.5 µmol/L
  Creatinine Mean percentage CFB: 8.07%
[9]
  Creatinine Mean CFB: 5.2 µmol/L
  Creatinine Mean percentage CFB: 9.28%
[10]
  Creatinine Mean CFB: 0.0 µmol/L
  Creatinine Mean percentage CFB: 0.00%
[11]
  Creatinine Mean CFB: 0.2 µmol/L
  Creatinine Mean percentage CFB: 0.86%
[12]
  Creatinine Mean CFB: 1.0 µmol/L
  Creatinine Mean percentage CFB: 2.27%
[13]
  Creatinine Mean CFB: 1.5 µmol/L
  Creatinine Mean percentage CFB: 3.40%
[14]
  Creatinine Mean CFB: 1.1 µmol/L
  Creatinine Mean percentage CFB: 2.67%
[15]
  Creatinine Mean CFB: 4.0 µmol/L
  Creatinine Mean percentage CFB: 7.51%
[16]
  Creatinine Mean CFB: 1.9 µmol/L
  Creatinine Mean percentage CFB: 3.91%
[17]
  Creatinine Mean CFB: 3.6 µmol/L
  Creatinine Mean percentage CFB: 7.19%
[18]
  Creatinine Mean CFB: 1.6 µmol/L
  Creatinine Mean percentage CFB: 3.16%
[19]
  Creatinine Mean CFB: 0.0 µmol/L
  Creatinine Mean percentage CFB: 0.00%
[20]
  Creatinine Mean CFB: 1.2 µmol/L
  Creatinine Mean percentage CFB: 3.00%
[21]
  Creatinine Mean CFB: 1.5 µmol/L
  Creatinine Mean percentage CFB: 3.21%
[22]
  Creatinine Mean CFB: 1.1 µmol/L
  Creatinine Mean percentage CFB: 3.23%
[23]
  Creatinine Mean CFB: 3.2 µmol/L
  Creatinine Mean percentage CFB: 5.79%
[24]
  Creatinine Mean CFB: 1.7 µmol/L
  Creatinine Mean percentage CFB: 3.96%
[25]
  Creatinine Mean CFB: 2.9 µmol/L
  Creatinine Mean percentage CFB: 6.44%
[26]
  Creatinine Mean CFB: 2.3 µmol/L
  Creatinine Mean percentage CFB: 4.63%
[27]
  Creatinine Mean CFB: 2.0 µmol/L
  Creatinine Mean percentage CFB: 4.17%
100 mg q.d. (N = 70), week 0
  Creatinine Mean CFB: 0.00 µmol/L
  Creatinine Mean percentage CFB: 0.00%
100 mg q.d. (N = 70), week 1
  Creatinine Mean CFB: 1.19 µmol/L
  Creatinine Mean percentage CFB: 3.00%
100 mg q.d. (N = 70), week 2
  Creatinine Mean CFB: 1.48 µmol/L
  Creatinine Mean percentage CFB: 3.21%
100 mg q.d. (N = 70), week 4
  Creatinine Mean CFB: 1.10 µmol/L
  Creatinine Mean percentage CFB: 3.23%
100 mg q.d. (N = 70), week 8
  Creatinine Mean CFB: 3.19 µmol/L
  Creatinine Mean percentage CFB: 5.79%
100 mg q.d. (N = 70), week 12
  Creatinine Mean CFB: 1.75 µmol/L
  Creatinine Mean percentage CFB: 3.96%
[28]
  Creatinine Mean CFB: 0.0 µmol/L
  Creatinine Mean percentage CFB: 0.00%
[29]
  Creatinine Mean CFB: 4.7 µmol/L
  Creatinine Mean percentage CFB: 8.07%
[30]
  Creatinine Mean CFB: 5.0 µmol/L
  Creatinine Mean percentage CFB: 8.56%
[31]
  Creatinine Mean CFB: 4.3 µmol/L
  Creatinine Mean percentage CFB: 7.37%
[32]
  Creatinine Mean CFB: 4.8 µmol/L
  Creatinine Mean percentage CFB: 8.70%
[33]
  Creatinine Mean CFB: 3.8 µmol/L
  Creatinine Mean percentage CFB: 7.96%
[34]
  Creatinine Mean CFB: 5.3 µmol/L
  Creatinine Mean percentage CFB: 9.81%
[35]
  Creatinine Mean CFB: 6.6 µmol/L
  Creatinine Mean percentage CFB: 13.11%
[36]
  Creatinine Mean CFB: 3.5 µmol/L
  Creatinine Mean percentage CFB: 8.41%
200 mg q.d. (N = 69), week 0
  Creatinine Mean CFB: 0.00 µmol/L
  Creatinine Mean percentage CFB: 0.00%
200 mg q.d. (N = 69), week 1
  Creatinine Mean CFB: 4.68 µmol/L
  Creatinine Mean percentage CFB: 8.07%
200 mg q.d. (N = 69), week 2
  Creatinine Mean CFB: 4.99 µmol/L
  Creatinine Mean percentage CFB: 8.56%
200 mg q.d. (N = 69), week 4
  Creatinine Mean CFB: 4.28 µmol/L
  Creatinine Mean percentage CFB: 7.37%
200 mg q.d. (N = 69), week 8
  Creatinine Mean CFB: 4.82 µmol/L
  Creatinine Mean percentage CFB: 8.70%
200 mg q.d. (N = 69), week 12
  Creatinine Mean CFB: 3.80 µmol/L
  Creatinine Mean percentage CFB: 7.96%
[37]
  Creatinine Mean CFB: 1.9 µmol/L
  Creatinine Mean percentage CFB: 3.61%
[38]
  Creatinine Mean CFB: 2.7 µmol/L
  Creatinine Mean percentage CFB: 5.14%
[39]
  Creatinine Mean CFB: 4.6 µmol/L
  Creatinine Mean percentage CFB: 8.41%
